The values below come from ChEMBL document CHEMBL1201862, “PubChem BioAssay data set” (2004).

Molecules are shown by their SMILES. Activity calls are given as the source filed them.

One test concerns the target Genome polyprotein (dengue virus type 2, UniProt P29990). Kind of test: flavivirus cap methylation enzyme inhibition – biochemical, confirmation dose response, primary screen (AID 588689). The test is classed as functional.
In test [1] the target is DNA dC->dU-editing enzyme APOBEC-3A (Homo sapiens, UniProt P31941). Kind of test: Dose Response confirmation of small molecule APOBEC3A DNA Deaminase Inhibitors via a fluorescence-based single-stranded DNA deaminase assay. [Related pubchem assays (depositor defined):AID493011, AID493024]. In kind it is functional.
Test [2] concerns the target DNA dC->dU-editing enzyme APOBEC-3G (Homo sapiens, UniProt Q9HC16). In kind it is functional.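 Also: Dose-response counterscreen measuring inhibition of APOBEC3G DNA deaminase activity, run while confirming APOBEC3A inhibitors.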
For test [3], the target named is T1, Short transient receptor potential channel 4 (Mus musculus, UniProt Q9QUQ5).
T1 sequence (Q9QUQ5 whole entry): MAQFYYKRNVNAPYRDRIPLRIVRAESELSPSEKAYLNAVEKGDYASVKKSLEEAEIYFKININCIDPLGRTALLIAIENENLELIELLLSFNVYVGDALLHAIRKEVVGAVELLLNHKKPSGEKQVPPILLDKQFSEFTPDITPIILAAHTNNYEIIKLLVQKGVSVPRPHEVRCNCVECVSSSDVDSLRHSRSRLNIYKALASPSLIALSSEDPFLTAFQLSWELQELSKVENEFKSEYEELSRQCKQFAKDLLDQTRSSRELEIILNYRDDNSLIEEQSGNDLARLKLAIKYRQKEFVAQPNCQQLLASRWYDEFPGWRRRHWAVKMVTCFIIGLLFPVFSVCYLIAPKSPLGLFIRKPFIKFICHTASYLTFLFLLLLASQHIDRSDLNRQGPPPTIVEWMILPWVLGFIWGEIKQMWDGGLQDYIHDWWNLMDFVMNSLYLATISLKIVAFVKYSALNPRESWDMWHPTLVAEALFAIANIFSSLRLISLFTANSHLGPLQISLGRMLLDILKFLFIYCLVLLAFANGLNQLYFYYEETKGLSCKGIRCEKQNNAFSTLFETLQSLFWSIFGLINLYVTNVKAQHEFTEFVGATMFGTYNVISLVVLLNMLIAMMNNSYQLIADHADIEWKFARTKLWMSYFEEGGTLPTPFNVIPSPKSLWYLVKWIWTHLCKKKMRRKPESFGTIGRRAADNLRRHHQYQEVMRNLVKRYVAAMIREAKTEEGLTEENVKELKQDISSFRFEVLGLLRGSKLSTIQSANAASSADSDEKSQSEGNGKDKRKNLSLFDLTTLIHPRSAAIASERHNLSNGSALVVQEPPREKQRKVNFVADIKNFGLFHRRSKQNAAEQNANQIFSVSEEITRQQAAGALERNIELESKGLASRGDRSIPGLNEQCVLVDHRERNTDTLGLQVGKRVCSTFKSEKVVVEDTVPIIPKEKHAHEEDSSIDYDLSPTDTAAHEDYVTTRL
Kind of test: block of DAMGO-driven TRPC4 calcium entry – cell-based, HEK293 TRPC4/mu-opioid, Fluo-4 calcium, dose response (AID 434942).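 Also: potency of inhibitors blocking the TRPC4 calcium response.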 The test is classed as functional.

The target of the next test is T2, Estrogen receptor (Homo sapiens, UniProt P03372).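 Also: potency for inhibiting coactivator peptide recruitment to the receptor.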
T2 sequence (P03372 whole entry): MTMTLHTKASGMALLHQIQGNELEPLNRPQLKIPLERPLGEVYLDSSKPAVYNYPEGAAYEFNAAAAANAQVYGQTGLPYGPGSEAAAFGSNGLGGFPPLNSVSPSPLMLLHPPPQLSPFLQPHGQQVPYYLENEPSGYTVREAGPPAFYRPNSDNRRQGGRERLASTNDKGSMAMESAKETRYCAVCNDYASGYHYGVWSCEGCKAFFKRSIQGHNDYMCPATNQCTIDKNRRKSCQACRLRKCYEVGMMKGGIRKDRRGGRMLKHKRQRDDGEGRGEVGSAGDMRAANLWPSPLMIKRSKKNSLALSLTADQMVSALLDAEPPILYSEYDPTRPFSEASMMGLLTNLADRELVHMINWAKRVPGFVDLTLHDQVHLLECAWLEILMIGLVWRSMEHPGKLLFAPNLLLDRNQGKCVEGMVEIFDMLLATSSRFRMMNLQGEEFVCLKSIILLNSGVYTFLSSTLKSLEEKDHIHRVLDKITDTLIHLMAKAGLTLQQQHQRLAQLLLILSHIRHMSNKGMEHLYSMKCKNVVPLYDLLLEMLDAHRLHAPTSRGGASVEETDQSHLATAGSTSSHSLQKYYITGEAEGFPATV

Test [4] addresses Peroxisome proliferator-activated receptor gamma/Nuclear receptor coactivator 3 (Homo sapiens, UniProt P37231). In kind it is functional.
The target of test [5] is Peroxisome proliferator-activated receptor gamma/Nuclear receptor coactivator 2 (Homo sapiens, UniProt P37231). In kind it is functional.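 Also: agonist potency for raising coactivator recruitment to the receptor.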
Test [6] has as its target Peroxisome proliferator-activated receptor gamma/Nuclear receptor coactivator 1 (Homo sapiens, UniProt P37231). In kind it is functional.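 Also: agonist potency as compounds enhance coactivator SRC-1 recruitment to PPARgamma.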
A further test has as its target SUMO-activating enzyme (Homo sapiens, UniProt Q9UBT2). The test is described as follows: blockers of UBC9-mediated SUMO conjugation – biochemical, AlphaScreen, SUMOylation inhibitor project, confirmation (AID 2018). The test is classed as functional. (Alpha assays give light when donor and acceptor beads are brought close together.)
The target in another test is T3, Protein Tat (Human immunodeficiency virus type 1 group M subtype B (isolate HXB2)(HIV-1), UniProt P04608).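 Also: tat binding to TAR RNA read out by fluorescence polarization.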
T3 sequence (P04608 whole entry): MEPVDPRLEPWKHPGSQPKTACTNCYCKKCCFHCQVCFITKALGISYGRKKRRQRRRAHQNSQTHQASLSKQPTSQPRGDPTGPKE
The test is classed as functional.

In test [7] the target is T4, Heat shock factor protein 1 (Mus musculus, UniProt P38532).
T4 sequence (P38532 whole entry): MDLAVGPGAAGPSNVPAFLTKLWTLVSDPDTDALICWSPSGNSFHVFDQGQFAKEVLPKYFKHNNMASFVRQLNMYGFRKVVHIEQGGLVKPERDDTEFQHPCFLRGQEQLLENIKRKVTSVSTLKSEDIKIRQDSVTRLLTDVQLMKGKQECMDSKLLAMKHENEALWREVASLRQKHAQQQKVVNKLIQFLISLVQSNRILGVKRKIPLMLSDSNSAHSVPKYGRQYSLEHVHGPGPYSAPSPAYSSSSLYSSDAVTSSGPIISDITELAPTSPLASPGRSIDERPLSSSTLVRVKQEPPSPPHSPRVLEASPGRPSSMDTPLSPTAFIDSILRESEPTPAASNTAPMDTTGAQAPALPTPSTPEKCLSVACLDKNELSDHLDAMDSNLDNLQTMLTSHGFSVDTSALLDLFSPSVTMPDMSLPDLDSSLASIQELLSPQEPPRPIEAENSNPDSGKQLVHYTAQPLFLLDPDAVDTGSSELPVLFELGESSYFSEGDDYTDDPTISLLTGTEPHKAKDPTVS
Kind of test: decrease of HSF1-responsive luciferase luminescence – cell-based, NIH3T3, dose retest, confirmation (AID 2382).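 Also: NIH3T3 fibroblasts with HSF1-driven luciferase reporter stressed by proteasome inhibitor MG132; luminescence from HSF1-driven luciferase expression after 8 hours of MG132 stress.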 In kind it is functional.

A short description of test [8]: reduction of Shn3 3'UTR-driven luciferase in osteoblasts – cell-based, Clone20 osteoblasts, firefly luciferase, cherry-picked, dose response (AID 624132).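 Also: firefly luciferase luminescence from reporter carrying the Shn3 3'UTR in osteoblasts.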 In kind it is functional.
Test [9] in a line: reduced cellular PGC1a acetyl-lysine signal – cell-based, cherry-picked samples, dose response (AID 720514).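 Also: potency may reflect raised or lowered acetylation signal.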 The test is classed as functional.
Test [10] has as its target T4, Heat shock factor protein 1. Kind of test: enhancement of HSF1-driven luciferase signal – cell-based, NIH3T3, luminescence, dose retest, confirmation (AID 435004).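 Also: stress induced by proteasome inhibitor MG132 added 30 min after compound; luciferase reporter driven by HSF1 response element in NIH3T3 cells; actives raise luminescence as potentiators of the MG132 stress response.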 The test is classed as functional.
Test [11] in a line: loss of viability in HepG2 cells – cell-based, CellTiter-Glo, cherry-picked, cytotoxicity control for Shn3 inhibitor project, dose response (AID 624134). In kind it is functional.
Test [12] in a line: non-specific 3'UTR reporter inhibition in Clone20-Shn3RL – cell-based, Renilla luciferase, cherry-picked, counter-screen for Shn3 inhibitor project, dose response (AID 624133). The test is classed as functional. A general note: A counterscreen serves to expose hits that act by an unwanted route or on another target.
For a further test, the target named is Cytochrome P450 2C9 (Homo sapiens, UniProt P11712).
Another test has as its target Large T antigen (Simian virus 40, UniProt P03070). In kind it is functional, Betapolyomavirus macacae.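 Also: Confirmatory-stage PubChem screen for compounds that inhibit SV40 T antigen.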

What is called IC50 is the concentration that inhibits the measured activity by half. In general, EC50 refers to the concentration that produces a half-maximal response. By AC50 is commonly meant the midpoint of the concentration-response curve, whichever way the signal moves.

Sequence of Peroxisome proliferator-activated receptor gamma/Nuclear receptor coactivator 3 (P37231 whole entry): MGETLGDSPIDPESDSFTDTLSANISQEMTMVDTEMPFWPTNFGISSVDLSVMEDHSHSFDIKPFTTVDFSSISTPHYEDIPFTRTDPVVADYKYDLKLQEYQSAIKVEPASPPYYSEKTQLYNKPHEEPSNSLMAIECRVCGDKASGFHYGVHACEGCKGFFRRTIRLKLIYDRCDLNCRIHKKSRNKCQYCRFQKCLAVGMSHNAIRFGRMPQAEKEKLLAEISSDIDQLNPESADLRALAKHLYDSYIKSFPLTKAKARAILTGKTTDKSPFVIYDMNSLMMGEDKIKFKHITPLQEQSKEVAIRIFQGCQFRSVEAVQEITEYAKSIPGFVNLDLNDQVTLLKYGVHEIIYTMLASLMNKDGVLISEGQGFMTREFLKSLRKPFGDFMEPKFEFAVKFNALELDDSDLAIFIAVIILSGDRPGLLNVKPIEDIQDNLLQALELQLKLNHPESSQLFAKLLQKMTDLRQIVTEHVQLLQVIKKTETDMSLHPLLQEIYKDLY
Sequence of Peroxisome proliferator-activated receptor gamma/Nuclear receptor coactivator 3 (Q9Y6Q9 whole entry, further chain): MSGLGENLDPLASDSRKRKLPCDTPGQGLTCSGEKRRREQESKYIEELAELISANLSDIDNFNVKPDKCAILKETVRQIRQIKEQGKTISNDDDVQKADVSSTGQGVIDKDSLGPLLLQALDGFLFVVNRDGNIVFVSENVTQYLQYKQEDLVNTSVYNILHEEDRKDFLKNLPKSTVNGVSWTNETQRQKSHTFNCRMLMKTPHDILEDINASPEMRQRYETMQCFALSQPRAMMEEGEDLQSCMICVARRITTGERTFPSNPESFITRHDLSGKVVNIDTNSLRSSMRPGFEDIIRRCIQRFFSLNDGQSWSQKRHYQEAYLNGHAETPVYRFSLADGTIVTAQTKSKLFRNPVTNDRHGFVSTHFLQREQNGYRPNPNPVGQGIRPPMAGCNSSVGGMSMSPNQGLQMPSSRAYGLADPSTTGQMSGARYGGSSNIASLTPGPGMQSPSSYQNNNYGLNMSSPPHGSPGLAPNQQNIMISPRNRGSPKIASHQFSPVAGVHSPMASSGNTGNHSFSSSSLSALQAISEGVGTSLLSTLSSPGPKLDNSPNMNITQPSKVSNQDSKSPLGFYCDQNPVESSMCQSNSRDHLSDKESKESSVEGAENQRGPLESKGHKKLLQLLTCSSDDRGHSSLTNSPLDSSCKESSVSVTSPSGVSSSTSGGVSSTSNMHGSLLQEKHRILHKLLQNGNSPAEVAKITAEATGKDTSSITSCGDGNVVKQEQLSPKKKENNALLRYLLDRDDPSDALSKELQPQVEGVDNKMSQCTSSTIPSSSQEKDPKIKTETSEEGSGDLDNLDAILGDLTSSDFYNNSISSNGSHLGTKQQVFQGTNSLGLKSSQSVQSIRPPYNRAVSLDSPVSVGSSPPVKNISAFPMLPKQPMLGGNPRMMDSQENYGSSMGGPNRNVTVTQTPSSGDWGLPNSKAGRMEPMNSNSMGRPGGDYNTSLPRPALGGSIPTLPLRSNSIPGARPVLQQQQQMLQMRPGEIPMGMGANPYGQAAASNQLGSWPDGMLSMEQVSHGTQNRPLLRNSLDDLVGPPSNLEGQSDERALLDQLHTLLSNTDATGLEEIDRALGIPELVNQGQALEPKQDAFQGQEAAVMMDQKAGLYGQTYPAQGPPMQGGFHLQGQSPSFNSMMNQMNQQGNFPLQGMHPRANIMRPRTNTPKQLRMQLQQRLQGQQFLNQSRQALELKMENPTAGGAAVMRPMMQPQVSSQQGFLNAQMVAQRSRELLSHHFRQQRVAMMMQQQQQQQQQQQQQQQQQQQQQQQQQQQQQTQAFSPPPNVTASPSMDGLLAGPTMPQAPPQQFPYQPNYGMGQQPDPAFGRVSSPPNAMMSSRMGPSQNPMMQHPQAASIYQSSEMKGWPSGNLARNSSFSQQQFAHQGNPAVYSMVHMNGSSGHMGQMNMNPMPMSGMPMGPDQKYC
Sequence of Peroxisome proliferator-activated receptor gamma/Nuclear receptor coactivator 2 (P37231 whole entry): as the sequence (P37231 whole entry) above
Sequence of Peroxisome proliferator-activated receptor gamma/Nuclear receptor coactivator 2 (Q15596 whole entry, further chain): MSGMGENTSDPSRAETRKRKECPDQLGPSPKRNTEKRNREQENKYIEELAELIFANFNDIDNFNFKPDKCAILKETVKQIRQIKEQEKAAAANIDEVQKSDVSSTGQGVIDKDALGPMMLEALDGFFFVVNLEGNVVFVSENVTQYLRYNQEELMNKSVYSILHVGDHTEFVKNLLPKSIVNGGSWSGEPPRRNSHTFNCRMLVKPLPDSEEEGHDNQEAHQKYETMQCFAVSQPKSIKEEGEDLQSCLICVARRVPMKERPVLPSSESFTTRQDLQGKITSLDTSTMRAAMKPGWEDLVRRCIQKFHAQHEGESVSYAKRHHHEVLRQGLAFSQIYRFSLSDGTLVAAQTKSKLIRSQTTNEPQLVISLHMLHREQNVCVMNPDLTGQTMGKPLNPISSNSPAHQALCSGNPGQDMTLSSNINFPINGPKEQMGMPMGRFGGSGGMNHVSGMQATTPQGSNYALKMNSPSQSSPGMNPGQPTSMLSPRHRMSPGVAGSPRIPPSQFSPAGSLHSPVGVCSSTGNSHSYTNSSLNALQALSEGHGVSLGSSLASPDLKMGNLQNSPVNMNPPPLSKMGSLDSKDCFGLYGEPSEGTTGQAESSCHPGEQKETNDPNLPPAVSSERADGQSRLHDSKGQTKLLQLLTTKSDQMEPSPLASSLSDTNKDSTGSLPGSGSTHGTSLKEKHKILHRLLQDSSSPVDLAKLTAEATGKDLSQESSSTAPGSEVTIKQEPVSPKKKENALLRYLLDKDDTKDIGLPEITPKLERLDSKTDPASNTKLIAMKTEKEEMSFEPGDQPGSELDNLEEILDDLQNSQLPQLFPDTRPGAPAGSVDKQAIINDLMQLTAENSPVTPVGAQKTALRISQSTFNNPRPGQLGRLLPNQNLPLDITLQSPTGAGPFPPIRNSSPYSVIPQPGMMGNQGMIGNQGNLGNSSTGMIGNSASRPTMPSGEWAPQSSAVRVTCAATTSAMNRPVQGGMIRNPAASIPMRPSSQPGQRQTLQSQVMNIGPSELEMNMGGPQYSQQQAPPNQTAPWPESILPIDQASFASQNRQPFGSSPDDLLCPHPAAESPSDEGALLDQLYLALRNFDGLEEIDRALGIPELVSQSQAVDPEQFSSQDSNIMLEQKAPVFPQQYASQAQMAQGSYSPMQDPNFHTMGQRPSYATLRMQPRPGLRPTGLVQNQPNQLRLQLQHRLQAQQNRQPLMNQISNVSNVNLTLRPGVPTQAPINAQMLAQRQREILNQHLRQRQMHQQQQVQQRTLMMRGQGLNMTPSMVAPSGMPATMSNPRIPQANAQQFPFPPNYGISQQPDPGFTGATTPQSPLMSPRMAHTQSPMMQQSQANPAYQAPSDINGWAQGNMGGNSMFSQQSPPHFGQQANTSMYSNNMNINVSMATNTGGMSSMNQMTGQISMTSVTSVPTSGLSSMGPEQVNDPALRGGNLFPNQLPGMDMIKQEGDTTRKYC
Sequence of DNA dC->dU-editing enzyme APOBEC-3A (P31941 whole entry): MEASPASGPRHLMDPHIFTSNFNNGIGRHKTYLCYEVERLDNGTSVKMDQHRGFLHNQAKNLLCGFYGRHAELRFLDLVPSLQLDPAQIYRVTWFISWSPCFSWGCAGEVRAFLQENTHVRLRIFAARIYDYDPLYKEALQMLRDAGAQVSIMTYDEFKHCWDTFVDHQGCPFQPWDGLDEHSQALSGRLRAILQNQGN
Sequence of Genome polyprotein (P29990 2492-3391 limits assumed): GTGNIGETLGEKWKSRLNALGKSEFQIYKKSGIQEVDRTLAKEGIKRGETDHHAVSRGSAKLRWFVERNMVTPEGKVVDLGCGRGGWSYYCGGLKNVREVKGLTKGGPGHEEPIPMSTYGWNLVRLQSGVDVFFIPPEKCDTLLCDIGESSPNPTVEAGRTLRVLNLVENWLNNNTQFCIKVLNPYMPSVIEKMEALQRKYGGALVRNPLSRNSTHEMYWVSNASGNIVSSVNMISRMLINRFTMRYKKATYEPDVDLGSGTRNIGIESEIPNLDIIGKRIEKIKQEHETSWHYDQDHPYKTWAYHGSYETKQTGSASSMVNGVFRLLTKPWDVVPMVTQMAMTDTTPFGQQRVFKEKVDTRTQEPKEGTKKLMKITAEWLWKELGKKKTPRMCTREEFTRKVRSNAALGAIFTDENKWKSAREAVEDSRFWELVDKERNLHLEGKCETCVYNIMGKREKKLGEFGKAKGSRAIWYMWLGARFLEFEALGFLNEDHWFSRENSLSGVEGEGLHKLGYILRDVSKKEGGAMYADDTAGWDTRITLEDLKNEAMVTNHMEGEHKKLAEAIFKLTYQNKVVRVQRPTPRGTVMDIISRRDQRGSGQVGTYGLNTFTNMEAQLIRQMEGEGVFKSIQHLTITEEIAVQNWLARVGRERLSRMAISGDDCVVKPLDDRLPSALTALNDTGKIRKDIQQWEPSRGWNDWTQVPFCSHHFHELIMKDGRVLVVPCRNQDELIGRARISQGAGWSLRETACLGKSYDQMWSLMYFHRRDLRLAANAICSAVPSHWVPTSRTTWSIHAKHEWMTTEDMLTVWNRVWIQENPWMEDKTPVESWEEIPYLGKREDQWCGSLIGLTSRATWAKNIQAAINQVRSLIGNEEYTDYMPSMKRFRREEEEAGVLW

For `CCn1c2ccccc2c2cc(NC(=O)c3ccccc3-c3ccccc3C(=O)O)ccc21`, the 50% inhibitory concentration (IC50) at Genome polyprotein was 42.9 µM (active).
Consider `NC(=O)C[N+]1(CC#CC(O)(c2ccccc2)c2ccccc2)CCCC1`, for which the IC50 in [1] was 2.74 µM (active); in [2], 2.59 µM (active).
The like results for `COCc1cc(C)nc(Sc2nc3c(c(=O)n(C)c(=O)n3C)n2C)c1C#N` were, in that order, 7.99 µM (active) and 8.47 µM (active).
Consider `O=C(O)C1=CC[C@@H](c2ccc(Cl)cc2)N(S(=O)(=O)c2ccc(Cl)cc2)[C@H]1c1cccc(Cl)c1`, for which the IC50 on Genome polyprotein is 37.4 µM (active).
Consider `CSc1nsc(NC(=O)Cc2ccccc2)n1`, for which the 50% effective concentration (EC50) in [3] was 5.31 µM (active).
Take `Cc1cc(C)c(NC(=O)CSc2nc3ccc(NC(=O)CSc4nnnn4Cc4ccccc4)cc3s2)c(C)c1`: at Estrogen receptor, the IC50 was > 50 µM (not active).
In the case of `COC(=O)C1=C(C)N(CC2CC2)C(NCc2cc(OC)c(OC)c(OC)c2)=N[C@H]1c1ccccc1`, the IC50 in test [1] is 8.83 µM (active); in [2] it was 14 µM (active).
For `CCOC(=O)CCC(=O)Nc1ccccc1C(N)=O`, the 50% inhibitory concentration (IC50) against Estrogen receptor is on record as > 50 µM (not active).
Consider `COC(=O)c1c(NC(=O)CSc2nc[nH]n2)sc(C)c1C`, for which the half-maximal effective concentration (EC50) in test [3] is 4.73 µM (active).
For the compound `COc1ccc(-c2c(C#N)c(C)nc3c2C(=O)c2ccccc2-3)cc1`, the values for the EC50 in [4], in test [5] and in test [6] were 48.3 µM (not active), 32.6 µM (not active) and 55.3 µM (not active), respectively.
`COC(=O)c1ccc2ccn(CC(=O)NC(C)C)c2c1`: the values for the IC50 in test [1] and in test [2] were 3.92 µM (active) and 4.95 µM (active), respectively.
In the case of `Cc1ccc(C2CN(C)CC2C(=O)c2ccc(F)cc2)cc1` (stereo not given), the EC50 in [3] was 13.3 µM (active).
Turning to `N#Cc1c(N)nc(SCC(=O)NC2CCCCC2)c(C#N)c1-c1ccc(Cl)cc1`, the half-maximal effective concentration (EC50) in test [4] is listed as 37.1 µM (not active); in [5], 21.9 µM (not active); in test [6], 34.6 µM (not active).
The like results for `Cc1ccc(CNC(=O)COc2ccc(C(=O)c3ccc(F)cc3)cc2)cc1` were, in that order, > 79.4 µM (not active), > 79.4 µM (not active) and > 79.4 µM (not active).
As for `CSc1ccc(C(c2c(C(=O)O)[nH]c3ccccc23)c2c(C(=O)O)[nH]c3ccccc23)cc1`, the 50% inhibitory concentration (IC50) on Genome polyprotein is 48.8 µM (active).
Turning to `O=C(COC(=O)c1cc(NS(=O)(=O)c2cccs2)ccc1O)Nc1cc(Cl)ccc1Cl`, at SUMO-activating enzyme, the half-maximal inhibitory concentration (IC50) was 28.8 µM (active).
As for `COc1ccccc1C(=O)Nc1nc(-c2cccs2)c(NC(C)=O)s1`, the IC50 on Estrogen receptor was 19 µM (active).
In the case of `CCOC(=O)/C=C1\SCC(=O)N1CC(=O)NC(C)c1ccc(F)cc1` (stereo not given), on Protein Tat, the IC50 is > 100 µM (active).
Take `Fc1ccc(-c2nnc(-n3nnc4ccccc43)c3ccccc23)cc1`: the half-maximal inhibitory concentration (IC50) on Estrogen receptor was 26.3 µM (active).
For the compound `N#Cc1c(NC(=O)CSc2ncccn2)oc(-c2ccccc2)c1-c1ccccc1`, the half-inhibitory concentration (IC50) at Estrogen receptor was 9.58 µM (active). Further, the concentration for a half-maximal effect (EC50) in [7] is 9.25 µM (active).
With `Fc1ccc(/C=C2\CCCC3=C2Nc2ncnn2C3c2ccc(F)cc2)cc1` (stereo not given), the AC50 in test [8] was 8.47 µM (active); in test [9], 9.46 µM (active); in test [11] it was 37.9 µM (active); in [12], 11.3 µM (active). For the same compound, the EC50 in [10] was 20.7 µM (active).
On to `Cc1nn(-c2ccc(Cl)cc2)c2sc(C(=O)c3c(N)n(C)c(=O)n(C)c3=O)cc12`, for which the half-maximal effective concentration (EC50) in test [4] is on record as 33.3 µM (not active); in [5], 18 µM (not active); in test [6] it was 18.4 µM (not active). Besides, at Cytochrome P450 2C9, the half-maximal activity concentration (AC50) was 25.1 µM (inconclusive).
With `CCC(C)(C)n1nnnc1C(c1ccc2ncccc2c1)N1CCN(c2ccc(O)cc2)CC1` (stereo not given), the values for the IC50 on Protein Tat and on Large T antigen were > 100 µM (active) and 34.6 µM (active), respectively.
For the compound `Cc1ccc([C@H]2C(C(=O)O)=CC[C@@H](c3ccc(Cl)c(Cl)c3)N2S(=O)(=O)c2ccc(C)cc2)cc1`, the half-maximal inhibitory concentration (IC50) at Genome polyprotein was 38.8 µM (active).
With `CCN1C(=NCC2CC2)N[C@@H](c2ccccc2)C(C(=O)OC)=C1C`, the IC50 in [1] was 3.37 µM (active); in test [2] it was 8.56 µM (active).
